These results are taken from US20260041620A1, “NOVEL AMINO ACID BASED SALTS, COMPOSITIONS AND METHODS FOR TREATING SKIN AND IMPROVING SKIN REJUVENATION AND LONGEVITY” (Sytheon Ltd, priority 2023, published 2026).

For test [1], the target named is T1, HDAC 11 (Homo sapiens, UniProt Q96DB2).
T1 construct: purchased BPS Biosciences 50687
T1 sequence (Q96DB2 1-347): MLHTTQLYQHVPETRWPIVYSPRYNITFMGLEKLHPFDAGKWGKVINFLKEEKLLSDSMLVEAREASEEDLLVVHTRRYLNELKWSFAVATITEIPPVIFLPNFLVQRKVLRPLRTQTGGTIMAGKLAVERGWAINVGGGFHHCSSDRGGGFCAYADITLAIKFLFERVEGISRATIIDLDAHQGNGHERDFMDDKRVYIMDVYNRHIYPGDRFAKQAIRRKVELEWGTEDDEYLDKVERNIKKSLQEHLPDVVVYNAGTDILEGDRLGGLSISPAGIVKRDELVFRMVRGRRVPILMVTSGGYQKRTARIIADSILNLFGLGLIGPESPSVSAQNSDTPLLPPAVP
Briefly: HDAC 11 fluorogenic assay kit. It is filed as biochemical.
Method: (§1) Test materials were stored at room temperature and stock solutions were prepared at 20 mg/ml in DMSO. Further dilutions were made in sterile distilled water immediately before being added to the reaction mixture containing a substrate, and the reaction was triggered by the addition of purified HDAC enzymes, Double distilled water was the negative control and trichostatin (1.5 ug/ml) was used as a positive control for validation of each study. The test procedure was as directed in the assay kits. The products of the reactions were measured by fluorometry at ex/em 350/450 nm using multi-well plate fluorometer Cytofluor 4000 (Applied Biosystem, Foster City, CA) or using SpectraMax i3× Multi-Mode Detection Platform from Molecular Devices (Sunnyvale, CA).
(§2) Statistical significance was assessed with a two-tail Student test. Deviations of ≤20% as compared to water control with p values below 0.05 were considered statistically significant.

In test [2] the target is T2, FAAH (Homo sapiens, UniProt O00519).
T2 sequence (O00519 1-579): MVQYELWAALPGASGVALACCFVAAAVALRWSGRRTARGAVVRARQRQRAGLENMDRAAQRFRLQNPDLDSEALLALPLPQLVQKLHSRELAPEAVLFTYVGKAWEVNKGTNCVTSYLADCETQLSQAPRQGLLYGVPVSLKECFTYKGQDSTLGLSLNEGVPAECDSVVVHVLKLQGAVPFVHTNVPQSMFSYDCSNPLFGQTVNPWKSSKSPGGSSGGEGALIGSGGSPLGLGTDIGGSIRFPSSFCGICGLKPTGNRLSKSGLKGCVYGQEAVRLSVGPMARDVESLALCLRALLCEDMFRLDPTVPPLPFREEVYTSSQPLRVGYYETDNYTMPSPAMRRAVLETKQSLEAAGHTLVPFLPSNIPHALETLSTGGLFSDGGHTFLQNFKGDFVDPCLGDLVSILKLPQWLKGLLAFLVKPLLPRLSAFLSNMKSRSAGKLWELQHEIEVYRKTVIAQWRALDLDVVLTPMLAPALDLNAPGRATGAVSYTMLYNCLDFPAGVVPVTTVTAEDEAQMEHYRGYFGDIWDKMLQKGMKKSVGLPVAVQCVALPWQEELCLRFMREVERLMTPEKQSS
Briefly: FAAH fluorescence-based inhibitory assay. It is filed as biochemical.

The target in test [3] is T3, MAGL (Homo sapiens, UniProt Q99685).
T3 construct: purchased Cayman 10007812
T3 sequence (Q99685 1-303): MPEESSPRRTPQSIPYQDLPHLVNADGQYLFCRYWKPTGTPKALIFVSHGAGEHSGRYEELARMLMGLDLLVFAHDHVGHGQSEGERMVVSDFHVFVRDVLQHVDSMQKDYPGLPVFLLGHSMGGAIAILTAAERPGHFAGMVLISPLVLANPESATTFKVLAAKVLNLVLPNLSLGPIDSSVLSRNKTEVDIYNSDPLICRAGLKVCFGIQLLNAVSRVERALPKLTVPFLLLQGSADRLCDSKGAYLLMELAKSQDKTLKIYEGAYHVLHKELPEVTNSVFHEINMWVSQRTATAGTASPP
Briefly: MAGL inhibitory assay. Type of test: biochemical. The procedure: Each study was performed in duplicate and the results averaged.
The final concentration in each well was 10 μl of sample, 5.6 μM MAGL (Cayman Catalog #10007812) and 23.6 μM 2-Arachidonoyl Glycerol (Cayman catalog #62160).

Test [4] addresses HDAC 5 (Homo sapiens, UniProt Q9UQL6).
Method: as §1, §2
Test [5] addresses T4, HDAC6 (Homo sapiens, UniProt Q9UBN7).
T4 sequence (Q9UBN7 1-1215): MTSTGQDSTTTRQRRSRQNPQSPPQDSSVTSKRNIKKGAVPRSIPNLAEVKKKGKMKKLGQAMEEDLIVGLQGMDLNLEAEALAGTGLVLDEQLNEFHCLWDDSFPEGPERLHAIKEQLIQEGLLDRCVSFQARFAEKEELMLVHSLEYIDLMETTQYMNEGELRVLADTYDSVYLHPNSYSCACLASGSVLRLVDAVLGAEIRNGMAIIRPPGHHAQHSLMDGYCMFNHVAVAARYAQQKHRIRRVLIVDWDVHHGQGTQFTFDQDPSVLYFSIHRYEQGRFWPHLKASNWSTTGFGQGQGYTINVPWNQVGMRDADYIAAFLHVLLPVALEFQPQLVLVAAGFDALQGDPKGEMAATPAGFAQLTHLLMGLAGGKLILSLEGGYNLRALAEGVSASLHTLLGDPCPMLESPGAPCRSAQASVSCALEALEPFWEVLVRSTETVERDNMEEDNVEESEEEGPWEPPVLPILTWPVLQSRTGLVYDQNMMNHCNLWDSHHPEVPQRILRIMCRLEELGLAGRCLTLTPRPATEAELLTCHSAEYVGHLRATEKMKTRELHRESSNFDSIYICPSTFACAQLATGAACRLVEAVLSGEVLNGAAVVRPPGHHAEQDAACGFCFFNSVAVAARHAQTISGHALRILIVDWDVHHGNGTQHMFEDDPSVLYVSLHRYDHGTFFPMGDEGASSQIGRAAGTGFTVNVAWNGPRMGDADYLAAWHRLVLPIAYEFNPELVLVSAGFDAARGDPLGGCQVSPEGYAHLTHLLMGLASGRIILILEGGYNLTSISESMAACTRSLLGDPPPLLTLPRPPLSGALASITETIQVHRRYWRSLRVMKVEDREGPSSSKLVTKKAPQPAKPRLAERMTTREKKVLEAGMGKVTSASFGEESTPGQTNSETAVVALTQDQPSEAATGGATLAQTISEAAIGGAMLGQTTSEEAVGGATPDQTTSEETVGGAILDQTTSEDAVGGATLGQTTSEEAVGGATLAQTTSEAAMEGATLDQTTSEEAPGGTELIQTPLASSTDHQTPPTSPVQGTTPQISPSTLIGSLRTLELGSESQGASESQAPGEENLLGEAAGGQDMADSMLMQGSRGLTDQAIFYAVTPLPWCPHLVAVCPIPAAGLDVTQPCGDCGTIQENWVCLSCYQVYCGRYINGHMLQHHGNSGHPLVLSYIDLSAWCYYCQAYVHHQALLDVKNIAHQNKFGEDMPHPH
Method: as §1, §2

Test [6] has as its target HDAC1 (Homo sapiens, UniProt Q13547). Briefly: HDAC 1 fluorogenic assay kit.
Method: as §1, §2

Read-outs that look alike come from different tables or passages of the source.

Sequence of HDAC1 (Q13547 whole entry): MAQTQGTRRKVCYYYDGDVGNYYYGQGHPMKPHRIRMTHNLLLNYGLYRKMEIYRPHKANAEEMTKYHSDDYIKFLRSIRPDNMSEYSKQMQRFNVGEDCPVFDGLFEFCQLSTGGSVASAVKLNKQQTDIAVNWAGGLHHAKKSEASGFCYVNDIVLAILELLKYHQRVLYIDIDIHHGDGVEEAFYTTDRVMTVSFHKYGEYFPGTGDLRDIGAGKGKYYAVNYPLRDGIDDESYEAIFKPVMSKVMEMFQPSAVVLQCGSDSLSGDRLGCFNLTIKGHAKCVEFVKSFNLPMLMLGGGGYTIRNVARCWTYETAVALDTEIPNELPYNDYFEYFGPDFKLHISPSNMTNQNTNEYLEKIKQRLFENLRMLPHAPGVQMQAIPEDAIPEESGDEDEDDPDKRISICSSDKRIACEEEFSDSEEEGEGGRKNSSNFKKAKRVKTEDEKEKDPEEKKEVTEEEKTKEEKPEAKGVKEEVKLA
Sequence of HDAC 5 (Q9UQL6 whole entry): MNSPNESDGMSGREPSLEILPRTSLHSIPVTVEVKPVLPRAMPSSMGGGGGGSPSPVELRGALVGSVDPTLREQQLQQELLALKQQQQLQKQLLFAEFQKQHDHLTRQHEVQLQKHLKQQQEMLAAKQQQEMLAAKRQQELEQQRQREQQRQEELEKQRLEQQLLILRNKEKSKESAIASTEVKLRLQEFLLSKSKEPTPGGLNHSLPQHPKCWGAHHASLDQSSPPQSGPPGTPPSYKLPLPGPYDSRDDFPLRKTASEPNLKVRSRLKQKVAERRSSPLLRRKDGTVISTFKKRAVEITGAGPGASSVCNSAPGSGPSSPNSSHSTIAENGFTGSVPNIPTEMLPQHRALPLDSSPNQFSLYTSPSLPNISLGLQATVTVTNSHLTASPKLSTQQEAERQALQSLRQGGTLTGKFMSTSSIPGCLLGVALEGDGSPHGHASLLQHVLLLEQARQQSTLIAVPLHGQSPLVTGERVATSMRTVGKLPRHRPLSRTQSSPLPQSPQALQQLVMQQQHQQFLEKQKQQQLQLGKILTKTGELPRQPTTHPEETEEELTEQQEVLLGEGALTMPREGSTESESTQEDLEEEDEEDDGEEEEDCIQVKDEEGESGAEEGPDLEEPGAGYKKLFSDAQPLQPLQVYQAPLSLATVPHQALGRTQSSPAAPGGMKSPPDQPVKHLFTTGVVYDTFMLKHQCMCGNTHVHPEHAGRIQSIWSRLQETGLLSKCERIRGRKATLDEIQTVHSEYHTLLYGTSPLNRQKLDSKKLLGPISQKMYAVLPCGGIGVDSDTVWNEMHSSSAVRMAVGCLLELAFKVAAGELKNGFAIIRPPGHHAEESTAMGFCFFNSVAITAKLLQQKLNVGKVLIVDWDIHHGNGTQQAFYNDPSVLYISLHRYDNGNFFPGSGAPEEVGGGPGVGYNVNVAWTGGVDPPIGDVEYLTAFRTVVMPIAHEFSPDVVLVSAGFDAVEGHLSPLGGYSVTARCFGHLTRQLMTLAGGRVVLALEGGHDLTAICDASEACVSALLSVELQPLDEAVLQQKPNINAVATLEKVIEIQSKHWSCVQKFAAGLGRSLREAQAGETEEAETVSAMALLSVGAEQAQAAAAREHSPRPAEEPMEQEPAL

In the case of `CCCC(=O)NCCCC[C@H](NC(=O)CCC)C(=O)[O-].CCCC(=O)NCCCC[C@H](NC(=O)CCC)C(=O)[O-].[Zn+2]` [Zn di-(di-n-butyryl lysinate), Zinc di-(di-n-butyryl lysinate)], the “HDAC 11 activity, % of water-treated controls” value (“HDAC 11 activity, %” for short) is on record as 102% in test [1] (5 ug/ml); 63% in test [1] (25 ug/ml); 17% in test [1] (50 ug/ml); 22% in test [1] (100 ug/ml); 43% in test [1] (200 ug/ml). Moreover, the “FAAH IC50” value in test [2] worked out at 368.7 µg/mL. For the same molecule, the “MAGL IC50” value in test [3] stood at 88.8 µg/mL. In addition, the “HDAC 5 activity, % of water-treated controls” value (“HDAC 5 activity, %” for short) came to 89% in test [4] (25 ug/ml), 65% in test [4] (50 ug/ml), 33% in test [4] (100 ug/ml) and 17% in test [4] (200 ug/ml). The “HDAC 6 activity, % of water-treated controls” value (“HDAC 6 activity, %” below) in test [5] (5 ug/ml) stood at 25%; in test [5] (25 ug/ml), 18%; in test [5] (50 ug/ml), 19%; in test [5] (100 ug/ml), 21%; in test [5] (200 ug/ml), 19%. For the same molecule, the “HDAC 1 activity, % of water-treated controls” value (shortened to “HDAC 1 activity, %”) is listed as 30% in test [6] (5 ug/ml); 32% in test [6] (25 ug/ml); 38% in test [6] (50 ug/ml); 49% in test [6] (100 ug/ml); 45% in test [6] (200 ug/ml).
Take Zinc Di-lysinate [Zn dilysinate]: the “HDAC 11 activity, %” value in test [1] (25 ug/ml) was 91%; in test [1] (50 ug/ml), 84%; in test [1] (100 ug/ml), 47%; in test [1] (200 ug/ml), 38%. Also, in test [2], the “FAAH IC50” value turned out to be 791.8 µg/mL. The “MAGL IC50” value in test [3] is 207.0 µg/mL. Also, the “HDAC 5 activity, %” value in test [4] (25 ug/ml) is reported as 73%; in test [4] (50 ug/ml), 52%; in test [4] (100 ug/ml) it was 31%; in test [4] (200 ug/ml) it was 14%. Also, the “HDAC 6 activity, %” value in test [5] (5 ug/ml) was 22%; in test [5] (25 ug/ml), 16%; in test [5] (50 ug/ml), 17%; in test [5] (100 ug/ml) it was 14%; in test [5] (200 ug/ml), 8%. Moreover, the figures for the “HDAC 1 activity, %” value in test [6] (25 ug/ml), in test [6] (50 ug/ml) and in test [6] (100 ug/ml) were 52%, 44% and 32%, respectively.
Turning to `CCCC(=O)NCCCCC(NC(=O)CCC)C(=O)[O-].CCCC(=O)NCCCCC(NC(=O)CCC)C(=O)[O-].[Ca+2]` (centres unmarked) [Ca di-(di-n-butyryl lysinate), calcium di-(di-n-butyryl lysinate)], the “HDAC 11 activity, %” value in test [1] (25 ug/ml) amounted to 106%; in test [1] (50 ug/ml) it was 100%; in test [1] (100 ug/ml), 101%; in test [1] (200 ug/ml) it was 97%. In addition, in test [2], the “FAAH IC50” value worked out at 213.6 µg/mL. Besides, the “MAGL IC50” value in test [3] was found to be 37.6 µg/mL. Moreover, the “HDAC 5 activity, %” value was 144% in test [4] (5 ug/ml); 128% in test [4] (25 ug/ml); 123% in test [4] (50 ug/ml); 117% in test [4] (100 ug/ml); 88% in test [4] (200 ug/ml). The “HDAC 6 activity, %” value is recorded as 105% in test [5] (5 ug/ml); 97% in test [5] (25 ug/ml); 124% in test [5] (50 ug/ml); 128% in test [5] (100 ug/ml); 134% in test [5] (200 ug/ml). Moreover, the entries for the “HDAC 1 activity, %” value in test [6] (25 ug/ml), in test [6] (50 ug/ml) and in test [6] (100 ug/ml) were 80%, 89% and 135%, respectively.
Take `CCCC(=O)N[C@@H](CC(C)C)C(=O)[O-].CCCC(=O)N[C@@H](CC(C)C)C(=O)[O-].[Zn+2]` [Zn di-(n-butyryl leucinate), Zinc di-(n-butyryl leucinate)]: the “HDAC 11 activity, %” value in test [1] (5 ug/ml) was 102%; in test [1] (25 ug/ml), 100%; in test [1] (50 ug/ml), 93%; in test [1] (100 ug/ml), 71%; in test [1] (200 ug/ml), 39%. The “FAAH IC50” value in test [2] is 41.3 µg/mL. The “MAGL IC50” value in test [3] amounted to 88.3 µg/mL. Besides, the “HDAC 5 activity, %” value in test [4] (25 ug/ml) came to 128%; in test [4] (50 ug/ml) it was 91%; in test [4] (100 ug/ml), 50%; in test [4] (200 ug/ml), 26%. For the same molecule, the “HDAC 6 activity, %” value amounted to 20% in test [5] (5 ug/ml); 20% in test [5] (25 ug/ml); 21% in test [5] (50 ug/ml); 20% in test [5] (100 ug/ml); 17% in test [5] (200 ug/ml).
